Laboratory results reported in patent US8217176B2, “Fused heterocyclic derivative and use thereof” (Takeda Pharmaceutical Company Limited, priority 2008, dated 2012).
Where a name gives a salt, the structure may show the parent alone.

System: NIH-3T3/Gli reporter cells
Assay: Evaluation of compound: Shh-N-induced luciferase activity in NIH-3T3/Gli reporter cells (Smo inhibitory action)
Format: cell-based
Settings: 48 hr; for inhibition at 1 µM: NIH3T3, 1 μM compound, mouse Shh-N end fragment supernatant, read-out: inhibition rate (%) at 1 μM; for IC50: NIH3T3, mouse Shh-N end fragment supernatant, read-out: IC50 value (compound concentration necessary for achieving 50% of the maximum value of inhibition rate)
Procedure: HEK293 cells were grown in D-MEM medium (Invitrogen) containing 10% fetal bovine serum in a 10 cm dish and pcDNA3.1/mShh-N was introduced into the cells using FuGENE6 (Roche Applied Science). Thereafter, the HEK293 cells were cultured in a carbon dioxide gas incubator at 37° C. for 24 hours, and the medium was exchanged with D-MEM medium (Invitrogen) containing 2% fetal bovine serum. After culturing for 48 hr, a culture supernatant containing recombinant type mouse Shh-N end fragment was obtained by filtration using a filter ([…]).
Using D-MEM (Invitrogen) containing 10% fetal bovine serum, expression plasmid pcDNA3.1 and Gli reporter plasmid (pGL3/δ-cry promoter, 8×Gli binding site) produced by the method of Experimental Example 1 were introduced into NIH-3T3 cells grown in a 10 cm dish by the use of FuGENE6 (Roche Applied Science).
After culture for 24 hr, the cells were recovered, suspended in D-MEM medium containing 10% fetal bovine serum and supplemented with Geneticin (Life Technologies Oriental, Inc.) to a final concentration of 500 μg/ml, diluted to 10^4 cells/ml, plated on a 96 well plate, and cultured in a carbon dioxide gas incubator at 37° C. to give Geneticin resistant transformed cell line.
The obtained transformed cell line was cultured in a 96 well plate, mouse Shh-N end fragment obtained in Experimental Example 3 was added, and NIH-3T3/Gli reporter cell, which is a cell line capable of induction of luciferase expression, was selected.
NIH-3T3/Gli reporter cells cultured in D-MEM (Invitrogen) containing 10% fetal bovine serum were plated in a 96 well white plate at 1×10^4 cells/well, and cultured overnight in a carbon dioxide gas incubator at 37° C. The medium was removed, a compound (50 μl) and culture supernatant of mouse Shh-N end fragment-expressing HEK293 (D-MEM medium containing 2% fetal bovine serum, 50 μl) were added, and the cells were cultured for 48 hr in a carbon dioxide gas incubator at 37° C. Bright-Glo (Promega, 50 μl) was added, and the mixture was stirred, after which luciferase activity was measured by EnVision (PerkinElmer). The inhibition rate was calculated based on the luciferase activity of the control without addition of the compound as 100. The concentration of the compound and the inhibition rate were analyzed by PRISM3.00 (software of GraphPad), based on which the IC50 value (compound concentration necessary for achieving 50% of the maximum value of inhibition rate) of the compound was calculated.

| SMILES | inhibition at 1 µM [%] | IC50 [nM] |
| --- | --- | --- |
| COc1c(C(=O)NCC(C)(C)CO)n(C)c2c1c(=O)n(CC(=O)c1ccccc1)c1ccccc21 [Example 109, N-(3-hydroxy-2,2-dimethylpropyl)-3-methoxy-1-methyl-4-oxo-5-(2-oxo-2-phenylethyl)-4,5-dihydro-1H-pyrrolo[3,2-c]quinoline-2-carboxamide] | 100 | ≤ 1000 |
| CCN(CC)CCN(C)C(=O)c1sc2c(c1OC)c(=O)n(CC1CC1)c1ccccc21 [Example 41, 5-(cyclopropylmethyl)-N-[2-(diethylamino)ethyl]-3-methoxy-N-methyl-4-oxo-4,5-dihydrothieno[3,2-c]quinoline-2-carboxamide] | 100 | ≤ 1000 |
| COc1c(C(=O)NCCN2CCOCC2)n(C)c2c1c(=O)n(CC(=O)c1ccccc1)c1ccccc21 [Example 71, 3-methoxy-1-methyl-N-(2-morpholin-4-ylethyl)-4-oxo-5-(2-oxo-2-phenylethyl)-4,5-dihydro-1H-pyrrolo[3,2-c]quinoline-2-carboxamide] | 100 | ≤ 1000 |
| COc1c(C(=O)NC2CCN(C(=O)CO)CC2)n(C)c2c1c(=O)n(CC(=O)c1ccccc1)c1ncccc21 [Example 643, N-[1-(hydroxyacetyl)piperidin-4-yl]-3-methoxy-1-methyl-4-oxo-5-(2-oxo-2-phenylethyl)-4,5-dihydro-1H-pyrrolo[3,2-c][1,8]naphthyridine-2-carboxamide] | 100 |  |
| CCOc1c(C(=O)NCC(C)(C)O)n(C)c2cc(C)n(CC(=O)c3ccccc3)c(=O)c12 [Example 132, 3-ethoxy-N-(2-hydroxy-2-methylpropyl)-1,6-dimethyl-4-oxo-5-(2-oxo-2-phenylethyl)-4,5-dihydro-1H-pyrrolo[3,2-c]pyridine-2-carboxamide] | 100 |  |
| CCCc1cc2c(c(OCC)c(C(=O)NC3CCN(C(=O)CO)CC3)n2C)c(=O)n1CC(=O)c1ccccc1 [Example 141, 3-ethoxy-N-[1-(hydroxyacetyl)piperidin-4-yl]-1-methyl-4-oxo-5-(2-oxo-2-phenylethyl)-6-propyl-4,5-dihydro-1H-pyrrolo[3,2-c]pyridine-2-carboxamide] | 100 |  |
| CCc1cc2c(c(OC(C)C)c(C(=O)NC3CCN(C(=O)CO)CC3)n2C)c(=O)n1CC(=O)c1ccccc1 [Example 522, 6-ethyl-N-[1-(hydroxyacetyl)piperidin-4-yl]-1-methyl-3-(1-methylethoxy)-4-oxo-5-(2-oxo-2-phenylethyl)-4,5-dihydro-1H-pyrrolo[3,2-c]pyridine-2-carboxamide] | 100 |  |
| CCOc1c(C(=O)NC2CCN(C(=O)CO)CC2)n(C)c2cc(C)n(CC(=O)c3ccccc3)c(=O)c12 [Example 136, 3-ethoxy-N-[1-(hydroxyacetyl)piperidin-4-yl]-1,6-dimethyl-4-oxo-5-(2-oxo-2-phenylethyl)-4,5-dihydro-1H-pyrrolo[3,2-c]pyridine-2-carboxamide] | 100 |  |
| COc1c(C(=O)NCC2CCCN(CCO)C2)n(C)c2c1c(=O)n(CC(=O)c1ccccc1)c1ccccc21 (centres unmarked) [Example 102, N-{[1-(2-hydroxyethyl)piperidin-3-yl]methyl}-3-methoxy-1-methyl-4-oxo-5-(2-oxo-2-phenylethyl)-4,5-dihydro-1H-pyrrolo[3,2-c]quinoline-2-carboxamide] | 80 | ≤ 1000 |
| COc1c(C(=O)NC2CCN(C(=O)CO)CC2)n(C)c2c1c(=O)n(CC(=O)c1ccccc1)c1ccncc21 [Example 644, N-[1-(hydroxyacetyl)piperidin-4-yl]-3-methoxy-1-methyl-4-oxo-5-(2-oxo-2-phenylethyl)-4,5-dihydro-1H-pyrrolo[3,2-c][1,6]naphthyridine-2-carboxamide] | 100 |  |
| COc1c(C(=O)N2CCCN(C)CC2)sc2c1c(=O)n(CC(=O)c1ccccc1)c1ccccc21 [Example 17, 3-methoxy-2-[(4-methyl-1,4-diazepan-1-yl)carbonyl]-5-(2-oxo-2-phenylethyl)thieno[3,2-c]quinolin-4(5H)-one trifluoroacetate] | 99 | ≤ 1000 |
| CCc1cc2c(c(OCC(F)(F)F)c(C(=O)NC3CCN(C(=O)CO)CC3)n2C)c(=O)n1Cc1ccccc1Cl [Example 660, 5-(2-chlorobenzyl)-6-ethyl-N-[1-(hydroxyacetyl)piperidin-4-yl]-1-methyl-4-oxo-3-(2,2,2-trifluoroethoxy)-4,5-dihydro-1H-pyrrolo[3,2-c]pyridine-2-carboxamide] | 100 |  |
| COc1c(C(=O)NCC2CCCCN2)sc2c1c(=O)n(CC(=O)c1ccccc1)c1ccccc21 (centres unmarked) [Example 74, 3-methoxy-4-oxo-5-(2-oxo-2-phenylethyl)-N-(piperidin-2-ylmethyl)-4,5-dihydrothieno[3,2-c]quinoline-2-carboxamide hydrochloride] | 100 | ≤ 1000 |
| CCc1cc2c(c(OCC(F)(F)F)c(C(=O)NC3CCN(C(=O)CO)CC3)n2C)c(=O)n1CCc1ccccc1 [Example 661, 6-ethyl-N-[1-(hydroxyacetyl)piperidin-4-yl]-1-methyl-4-oxo-5-(2-phenylethyl)-3-(2,2,2-trifluoroethoxy)-4,5-dihydro-1H-pyrrolo[3,2-c]pyridine-2-carboxamide] | 100 |  |
| CCOc1c(C(=O)NC2CCN(C(=O)CO)CC2)sc2cc(CC)n(CC(=O)c3ccccc3)c(=O)c12 [Example 650, 3-ethoxy-6-ethyl-N-[1-(hydroxyacetyl)piperidin-4-yl]-4-oxo-5-(2-oxo-2-phenylethyl)-4,5-dihydrothieno[3,2-c]pyridine-2-carboxamide] | 100 |  |
| COc1c(C(=O)NC2CCN(C(=O)CCO)CC2)n(C)c2c1c(=O)n(CC(=O)c1ccccc1)c1ccccc21 [Example 517, N-[1-(3-hydroxypropanoyl)piperidin-4-yl]-3-methoxy-1-methyl-4-oxo-5-(2-oxo-2-phenylethyl)-4,5-dihydro-1H-pyrrolo[3,2-c]quinoline-2-carboxamide] | 100 |  |
| CCOc1c(C(=O)NC2CCN(CCO)CC2)n(C)c2cc(C)n(CC(=O)c3ccccc3)c(=O)c12 [Example 138, 3-ethoxy-N-[1-(2-hydroxyethyl)piperidin-4-yl]-1,6-dimethyl-4-oxo-5-(2-oxo-2-phenylethyl)-4,5-dihydro-1H-pyrrolo[3,2-c]pyridine-2-carboxamide] | 100 |  |
| COc1c(C(=O)N(C)CC(=O)N2CCCC2)sc2c1c(=O)n(CC(=O)c1ccccc1)c1ccccc21 [Example 27, 3-methoxy-N-methyl-4-oxo-5-(2-oxo-2-phenylethyl)-N-(2-oxo-2-pyrrolidin-1-ylethyl)-4,5-dihydrothieno[3,2-c]quinoline-2-carboxamide] | 100 | ≤ 1000 |
| CCN(C(C)=O)C1CCN(C(=O)c2sc3c(c2OC)c(=O)n(CC(=O)c2ccccc2)c2ccccc32)C1 (centres unmarked) [Example 2, N-ethyl-N-(1-{[3-methoxy-4-oxo-5-(2-oxo-2-phenylethyl)-4,5-dihydrothieno[3,2-c]quinolin-2-yl]carbonyl}pyrrolidin-3-yl)acetamide] | 100 | ≤ 1000 |
| COc1c(C(=O)NC(C)CN(C)C)n(C)c2c1c(=O)n(CC(=O)c1ccccc1)c1ccccc21 (centres unmarked) [Example 92, N-[2-(dimethylamino)-1-methylethyl]-3-methoxy-1-methyl-4-oxo-5-(2-oxo-2-phenylethyl)-4,5-dihydro-1H-pyrrolo[3,2-c]quinoline-2-carboxamide] | 100 | ≤ 1000 |
| CCN(CC)CCN(C)C(=O)c1sc2c(c1OC)c(=O)n(Cc1ccc(OC)cc1)c1ccccc21 [Example 48, N-[2-(diethylamino)ethyl]-3-methoxy-5-(4-methoxybenzyl)-N-methyl-4-oxo-4,5-dihydrothieno[3,2-c] quinoline-2-carboxamide hydrochloride] | 10 | ≤ 1000 |
| COc1c(C(=O)NC2CCN(C(=O)CO)CC2)sc2c1c(=O)n(CC(=O)c1ccccc1)c1ccc(F)cc21 [Example 562, 8-fluoro-N-[1-(hydroxyacetyl)piperidin-4-yl]-3-methoxy-4-oxo-5-(2-oxo-2-phenylethyl)-4,5-dihydrothieno[3,2-c]quinoline-2-carboxamide] | 100 |  |
